# In US10945975B2, “Delaying latency to seizure by combinations of ketone supplements” (priority 2016, dated 2021):
# Marks after values point to notes of the source that are not given here.
# Tests used:
# Type in all cases: in vivo, Sprague-Dawley rats
# [1] = system: rat model of CNS-OT; assay: Latency to seizure in rat model of CNS-OT (hyperbaric oxygen, 5 ATA); settings: 5 g/kg
# Method: (§1) The effect of various ketogenic compositions on latency to seizure and seizure severity was tested in a rat model of CNS-OT. Adult male Sprague-Dawley rats (n=60), 250-300 grams (Harlan) were used in the experiments described herein. Rats were given normal chow and water ad libitum and kept on a 12-hour light/dark cycle. At […], the rats were assigned to one of 5 treatment groups: control (water), 1,3-butanediol acetoacetate diester (KE, 10 g/kg), KE/2 (KE, 5 g/kg), KE+MCT (1,3-butanediol acetoacetate diester+medium chain triglyceride, 5 g/kg+5 g/kg) and KS+MCT (Na^+Ca^2+BHB 5 g/kg+MCT 5 g/kg). Rats received one dose of the designated ketogenic agent or water by oral gavage. Rats were then placed into the hyperbaric chamber 29-30 minutes after treatment, and pressurized to 5 atmospheres as provided below, such that rats were exposed to the hyperbaric conditions at 60 minutes after treatment.
# The hyperbaric system consisted of two main elements: 1) a plexiglass chamber (˜3 liter capacity, Diamond Box, Buxco, Electronics Inc., model PLY3114), that housed the rat during the experiment, and 2) a hyperbaric chamber (Reimers System Inc.—7.8 ATA MWP), that contained the plexiglass chamber and functioned as the pressure vessel. Both chambers were connected to an air compressor (oil-less rotary scroll compressor—model DK6086, Powerex).
# Rats were placed in the hyperbaric chamber, where the rats were allowed 10 minutes to acclimate in air. Then the plexiglass chamber was filled with pure oxygen, and the rats were allowed another 15 minutes to acclimate. The outer chamber was pressurized using air (capacity ˜205 liters) to minimize the risk of an electrical-induced fire. Next, both chambers were compressed to 5 atmospheres absolute (ATA) at a rate of approximately 1 ATA/min. Each experiment was visually monitored via a live camera.
# Latency to seizure (LS) was calculated from the moment at which the internal and the external chambers reached 5 ATA until the onset of CNS-OT seizures, as identified above. After the onset of seizures, the plexiglass chamber was flushed with air to quickly terminate seizure, and both chambers decompressed to sea level. Decompression rate was 1 ATA/min. A small sample of blood was drawn and tested immediately for glucose and beta-hydroxybutyrate levels.
# [2] = Blood glucose levels after removal from the hyperbaric chamber; settings: 10 g/kg, oral gavage; FIG. 7
# Method: as §1, with “Rats were then placed into the hyperbaric chamber 29-30 minutes after treatment, and pressurized to 5 atmospheres as provided below, such that rats were exposed to the hyperbaric conditions at 60 minutes after treatment.” left out
# (§2) Latency to seizure (LS) was calculated from the moment at which the internal and the external chambers reached 5 ATA until the onset of CNS-OT seizures, as identified above. […]
# (§3) Body weights were collected for all rats prior to oral gavage of treatment. Blood concentrations of glucose and beta-hydroxybutyrate (BHB) were determined utilizing a commercially available glucose/ketone monitoring system (Precision Xtra® blood glucose and ketone meter) immediately following removal from the hyperbaric chamber. […]
# [3] = system: rat model of CNS-OT; assay: Seizure severity score in rat model of CNS-OT; settings: 5 g/kg, oral gavage; FIG. 4
# Method: as §1
# Rats were placed in the hyperbaric chamber, where the rats were allowed 10 minutes to acclimate in air. Then the plexiglass chamber was filled with pure oxygen, and the rats were allowed another 15 minutes to acclimate. The outer chamber was pressurized using air (capacity ˜205 liters) to minimize the risk of an electrical-induced fire. […] Each experiment was visually monitored via a live camera. […]
# [4] = Blood beta-hydroxybutyrate (BHB) levels after removal from the hyperbaric chamber; settings: 5 g/kg, oral gavage
# Method: as §1, with “Rats were then placed into the hyperbaric chamber 29-30 minutes after treatment, and pressurized to 5 atmospheres as provided below, such that rats were exposed to the hyperbaric conditions at 60 minutes after treatment.” left out
# as §2, §3
structure (smiles),measurement,setting,value
"CC(=O)CC(=O)OCCC(C)OC(=O)CC(C)=O (centres unmarked) [KE, 1,3-butanediol acetoacetate diester]","T-test (p), latency to time of seizure vs control","[1]; one dose oral gavage, 5 ATA O2, all collected data",0.256†
same,Latency to seizure compared to control,"[1]; oral gavage, FIG. 1, all data",about 2 ×
same,"T-test (p), latency to time of seizure vs control","[1]; oral gavage, outliers excluded (2 standard deviations)",0.023*
same,Latency to seizure compared to control (in words),"[1]; outliers removed, FIG. 2",significantly increased latency to seizure compared to control
same,Blood glucose levels (in words),[2],highest blood glucose levels
same,"Seizure severity (score 0-3) vs control, in words",[3],some suppression
same,Blood BHB levels compared to control,[4]; FIG. 6,about 3 ×
same,"T-test (p), BHB levels vs control",[4]; all collected data,0.0012**
